Where a name gives a salt, the structure may show the parent alone.

For orientation: inhibition means the percentage by which the read-out fell short of the control. Low values mean a weak effect, high ones a strong effect.

In this test the target is T1, steroid 17α-hydroxylase and/or steroid C17-20 lyase (Rattus norvegicus, UniProt P11715).
T1 construct: the testis of rats (SD, male) was homogenized and centrifuged to obtain microsome; from tissue; host or cells: rat (SD, male) testis microsomes
T1 sequence (P11715 1-507): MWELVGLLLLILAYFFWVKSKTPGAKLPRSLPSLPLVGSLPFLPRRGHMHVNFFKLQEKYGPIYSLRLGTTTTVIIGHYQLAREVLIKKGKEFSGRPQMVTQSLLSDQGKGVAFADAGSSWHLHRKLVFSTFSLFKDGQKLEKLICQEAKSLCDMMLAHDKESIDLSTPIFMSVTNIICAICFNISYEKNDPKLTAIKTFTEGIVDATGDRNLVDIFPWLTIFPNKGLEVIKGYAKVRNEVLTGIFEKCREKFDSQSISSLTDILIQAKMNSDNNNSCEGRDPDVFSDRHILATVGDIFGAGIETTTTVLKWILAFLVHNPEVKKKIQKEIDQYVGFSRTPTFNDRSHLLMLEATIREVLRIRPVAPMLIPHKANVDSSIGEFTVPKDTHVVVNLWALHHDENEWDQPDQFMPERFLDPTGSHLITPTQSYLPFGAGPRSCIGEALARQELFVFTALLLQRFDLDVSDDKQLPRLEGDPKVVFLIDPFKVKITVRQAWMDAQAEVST
The experiment in a line: Measurement of steroid 17α-hydroxylase and/or steroid C17-20 lyase inhibitory activity (rat testis microsome, HPLC). It is filed as biochemical. The conditions noted are these: Enzyme source: rat testis microsome; test compound 300 nM; substrate 25 μM 17α-hydroxyprogesterone; NADPH 500 μM; 20 minutes at 37° C. The procedure: An experiment was carried out according to the method of T. Sergejew and R. W. Hartmann (J. Enzyme Inhibition, 8, 113(1994)). That is, the testis of rats (SD, male) was homogenized and centrifuged to obtain microsome. […] After the addition of 100 μl of microsome protein solution, the protein contentration was adjusted to 0.1 mg/ml by 50 mM phosphate buffer solution (pH 7.4), 140 μl of 125 nmol NADPH solution, and 10 μl of 6.25 nmol 17α-hydroxyprogesterone, the mixture was incubated for 20 minutes at 37° C. 50 μl of 1N hydrochloric acid and 1000 μl of ethyl acetate were sequentially added to the mixture. The mixture was shaken and centrifuged. The ethyl acetate layer was washed with 250 μl of 50 mM phosphate buffer solution (pH 7.4) and 50 μl of 1N hydrochloric acid, centrifuged, and concentrated. The concentrate was dissolved in 100 μl of acetonitrile. 10 μl of this solution was charged to high performance liquid chromatography. The amounts of the substrate and the product (androstenedione and testosterone) were measured to calculate the enzyme activity. In this experiment, a sample without the test compound was provided as a control group. Steroid 17α-hydroxylase and/or steroid C17-20-lyase inhibitory activity (%) was calculated by the following equation (1) using the amounts of the substrate and the product obtained.
With `COc1ccc2c(-c3cccnc3)csc2c1` [Example 2, 3-[6-methoxybenzo[b]thiophen-3-yl]pyridine hydrochloride], the inhibition at 0.3 µM stood at 89%.

As to `COc1ccc(-c2ccc3c(-c4ccncc4)csc3c2)cc1` [Example 7, 4-[6-(4-methoxyphenyl)benzo[b]thiophen-3-yl]pyridine], the inhibition at 0.3 µM was determined as 60%.

`Oc1ccc2c(-c3cccnc3)csc2c1` [Example 8, 3-(3-pyridyl)benzo[b]thiophen-6-ol] registered an inhibition at 0.3 µM of 59%.

As for `CC(=O)Oc1ccc2c(-c3cccnc3)csc2c1` [Example 9, 3-(3-pyridyl)benzo[b]thiophen-6-yl=acetate], the “Inhibitory activity (%)” value was 63%.

`O=C(Oc1ccc2c(-c3cccnc3)csc2c1)c1ccccc1` [Example 10, 3-(3-pyridyl)benzo[b]thiophen-6-yl=benzoate]: the “Inhibitory activity (%)” value amounted to 71%.

In the case of `c1ccc(COc2ccc3c(-c4cccnc4)csc3c2)cc1` [Example 11, 3-(6-benzyloxybenzo[b]thiophen-3-yl)pyridine hydrochloride], the inhibition at 0.3 µM turned out to be 71%.

`CC(C)Oc1ccc2c(-c3cccnc3)csc2c1` [Example 12, 3-(6-isopropyloxybenzo[b]thiophen-3-yl)pyridine hydrochloride] showed an inhibition at 0.3 µM of 100%.

In turn, `Fc1ccc(-c2ccc3c(-c4cccnc4)csc3c2)cc1` [Example 13, 3-[6-(4-fluorophenyl)benzo[b]thiophen-3-yl]pyridine hydrochloride] registered an inhibition at 0.3 µM of 93%.

As to `Fc1cccc(-c2ccc3c(-c4cccnc4)csc3c2)c1` [Example 14, 3-[6-(3-fluorophenyl)benzo[b]thiophen-3-yl]pyridine], at 0.3 µM the inhibition was 91%.

In the case of `c1ccc(-c2ccc3c(-c4cccnc4)csc3c2)cc1` [Example 15, 3-(6-phenylbenzo[b]thiophen-3-yl)pyridine], 0.3 µM produced 93% inhibition.

`COc1cccc(-c2ccc3c(-c4cccnc4)csc3c2)c1` [Example 16, 3-[6-(3-methoxyphenyl)benzo[b]thiophen-3-yl]pyridine hydrochloride] had an inhibition at 0.3 µM of 73%.

Compound `COc1ccc(-c2ccc3c(-c4cccnc4)csc3c2)cc1` [Example 18, 3-[6-(4-methoxyphenyl)benzo[b]thiophen-3-yl]pyridine] gave an inhibition at 0.3 µM of 37%.

As to `Oc1ccc(-c2ccc3c(-c4cccnc4)csc3c2)cc1` [Example 19, 4-[3-(3-pyridyl)benzo[b]thiophen-6-yl]-phenol], at 0.3 µM the inhibition was 68%.

Take `COc1ccc(-c2ccc3c(-c4cccnc4)csc3c2)cc1OC` [Example 21, 3-[6-(3,4-dimethoxyphenyl)benzo[b]thiophen-3-yl]pyridine]: the inhibition at 0.3 µM came out at 30%.

In turn, `Oc1ccc(-c2ccc3c(-c4cccnc4)csc3c2)cc1O` [Example 22, 4-[3-(3-pyridyl)benzo[b]thiophen-6-yl]benzene-1,2-diol] yielded an inhibition at 0.3 µM of 73%.

As for `Nc1cccc(-c2ccc3c(-c4cccnc4)csc3c2)c1` [Example 23, 3-[3-(3-pyridyl)benzo[b]thiophen-6-yl]phenylamine], 0.3 µM produced 100% inhibition.

`c1cncc(-c2csc3cc(OC4CCCC4)ccc23)c1` [Example 25, 3-(6-cyclopentyloxybenzo[b]thiophen-3-yl)pyridine hydrochloride] came in with an inhibition at 0.3 µM of 76%.

For the compound `COc1cccc(Oc2ccc3c(-c4cccnc4)csc3c2)c1` [Example 26, 3-[6-(3-methoxyphenoxy)benzo[b]thiophen-3-yl]pyridine hydrochloride], the inhibition at 0.3 µM amounted to 1%.

For `Cc1ccc2c(-c3cccnc3)csc2c1` [Example 27, 3-(6-methylbenzo[b]thiophen-3-yl)pyridine hydrochloride], the inhibition at 0.3 µM was 56%.

The compound `Brc1ccc2c(-c3cccnc3)csc2c1` [Example 28, 3-(6-bromobenzo[b]thiophen-3-yl)pyridine hydrochloride] showed an inhibition at 0.3 µM of 42%.

On to `Brc1cccc2scc(-c3cccnc3)c12` [Example 29, 3-(4-bromobenzo[b]thiophen-3-yl)pyridine hydrochloride], for which testing at 0.3 µM gave an inhibition of 25%.

As for `c1cncc(-c2csc3cc(OC4CCC4)ccc23)c1` [Example 30, 3-(6-cyclobutyloxybenzo[b]thiophen-3-yl) pyridine hydrochloride], the inhibition at 0.3 µM was found to be 100%.

`c1cncc(-c2csc3cc(-c4ccsc4)ccc23)c1` [Example 31, 3-[6-(3-thienyl)benzo[b]thiophen-3-yl]pyridine hydrochloride]: 0.3 µM produced 100% inhibition.

The compound `c1cncc(-c2csc3cc(-c4ccoc4)ccc23)c1` [Example 32, 3-[6-(3-furyl)benzo[b]thiophen-3-yl]pyridine hydrochloride] yielded an inhibition at 0.3 µM of 100%.

`c1cncc(-c2csc3cc(-c4cccs4)ccc23)c1` [Example 33, 3-[6-(2-thienyl)benzo[b]thiophen-3-yl]pyridine hydrochloride]: the inhibition at 0.3 µM was found to be 100%.

Compound `c1cncc(-c2csc3cc(-c4ccco4)ccc23)c1` [Example 34, 3-[6-(2-furyl)benzo[b]thiophen-3-yl]pyridine hydrochloride] showed an inhibition at 0.3 µM of 100%.

In turn, `CCCCCCOc1ccc2c(-c3cccnc3)csc2c1` [Example 35, 3-(6-hexyloxybenzo[b]thiophen-3-yl)pyridine hydrochloride] had an inhibition at 0.3 µM of 61%.

Regarding `CCCCCOc1ccc2c(-c3cccnc3)csc2c1` [Example 36, 3-(6-amyloxybenzo[b]thiophen-3-yl)pyridine hydrochloride], the inhibition at 0.3 µM came out at 60%.

`CCCCOc1ccc2c(-c3cccnc3)csc2c1` [Example 37, 3-(6-butyloxybenzo[b]thiophen-3-yl)pyridine hydrochloride] gave an inhibition at 0.3 µM of 80%.

Take `CC(=O)c1ccccc1-c1ccc2c(-c3cccnc3)csc2c1` [Example 38, 1-{2-[3-(3-pyridyl)benzo[b]thiophen-6-yl]phenyl}-1-ethanone hydrochloride]: at 0.3 µM the inhibition was 45%.

Regarding `CC(=O)c1cccc(-c2ccc3c(-c4cccnc4)csc3c2)c1` [Example 39, 1-{3-[3-(3-pyridyl)benzo[b]thiophen-6-yl]phenyl}-1-ethanone], at 0.3 µM the inhibition was 64%.

`CC(C)COc1ccc2c(-c3cccnc3)csc2c1` [Example 40, 3-(6-isobutyloxybenzo[b]thiophen-3-yl) pyridine hydrochloride] returned an inhibition at 0.3 µM of 79%.

Take `CCCOc1ccc2c(-c3cccnc3)csc2c1` [Example 41, 3-(6-propyloxybenzo[b]thiophen-3-yl)pyridine hydrochloride]: testing at 0.3 µM gave an inhibition of 95%.

Consider `c1cncc(-c2csc3cc(-c4ccc5c(c4)OCO5)ccc23)c1` [Example 42, 3-[6-(1,3-benzodioxol-5-yl)benzo[b]thiophen-3-yl]pyridine hydrochloride], for which the inhibition at 0.3 µM was found to be 57%.

As for `CCOc1ccc2c(-c3cccnc3)csc2c1` [Example 43, 3-(6-ethyloxybenzo[b]thiophen-3-yl)pyridine hydrochloride], 0.3 µM produced 97% inhibition.

Regarding `CC(=O)c1ccc(-c2ccc3c(-c4cccnc4)csc3c2)cc1` [Example 44, 1-{4-[3-(3-pyridyl)benzo[b]thiophen-6-yl]phenyl}-1-ethanone], the inhibition at 0.3 µM came to 46%.

In turn, `CN(C)CCOc1ccc2c(-c3cccnc3)csc2c1` [Example 45, 3-[6-(N,N-dimethyl-2-aminoethyloxy)benzo[b]thiophen-3-yl]pyridine dimaleate] registered an inhibition at 0.3 µM of 33%.

Turning to `CC(C)Cc1ccc2c(-c3cccnc3)csc2c1` [Example 46, 3-(6-isobutylbenzo[b]thiophen-3-yl)pyridine hydrochloride], the inhibition at 0.3 µM was found to be 100%.

`CSc1ccc(-c2ccc3c(-c4cccnc4)csc3c2)cc1` [Example 47, 3-[6-(4-methylthiophenyl)benzo[b]thiophen-3-yl]pyridine hydrochloride]: the inhibition at 0.3 µM was found to be 53%.

Take `Cl.FC(F)(F)c1ccccc1-c1ccc2c(-c3cccnc3)csc2c1` [Example 48, 3-{[6-(2-trifluoromethyl)phenyl]benzo[b]thiophen-3-yl}pyridine hydrochloride]: the “Inhibitory activity (%)” value was 54%.

With `CC(C)Nc1cccc(-c2ccc3c(-c4cccnc4)csc3c2)c1` [Example 49, isopropyl {3-[3-(3-pyridyl)benzo[b]thiophen-6-yl]phenyl}amine], testing at 0.3 µM gave an inhibition of 67%.

These data come from patent US20030130340A1, “Novel benzothiophene derivatives” (Daiichi Pharmaceutical Co. Ltd., priority 2000, published 2003).
